From PubChem BioAssay (NCI)
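Each compound was tested at five concentrations against cells in 96-well plates for 48 hours. GI50 = concentration required for 50% inhibition of growth. TGI: concentration producing complete growth inhibition.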

What was measured:
Experiment in all cases: NCI-60 cell line screen, 48 h
SNB-19 CNS = tested on: SNB-19 CNS
MALME-3M melanoma = tested on: MALME-3M melanoma
SF-268 CNS = tested on: SF-268 CNS
SN12C renal = tested on: SN12C renal
HOP-62 NSCLC = tested on: HOP-62 NSCLC
COLO 205 colon = tested on: COLO 205 colon
A549 NSCLC = tested on: A549 NSCLC
UACC-62 melanoma = tested on: UACC-62 melanoma
SNB-75 CNS = tested on: SNB-75 CNS
UO-31 renal = tested on: UO-31 renal

SMILES | GI50 (SNB-19 CNS) [µM] | TGI (SNB-19 CNS) [µM] | GI50 (MALME-3M melanoma) [µM] | TGI (MALME-3M melanoma) [µM] | GI50 (SF-268 CNS) [µM] | TGI (SF-268 CNS) [µM] | GI50 (SN12C renal) [µM] | TGI (SN12C renal) [µM] | GI50 (HOP-62 NSCLC) [µM] | TGI (HOP-62 NSCLC) [µM] | GI50 (COLO 205 colon) [µM] | TGI (COLO 205 colon) [µM] | GI50 (A549 NSCLC) [µM] | TGI (A549 NSCLC) [µM] | GI50 (UACC-62 melanoma) [µM] | TGI (UACC-62 melanoma) [µM] | GI50 (SNB-75 CNS) [µM] | TGI (SNB-75 CNS) [µM] | GI50 (UO-31 renal) [µM] | TGI (UO-31 renal) [µM]
O=C(CC(=O)c1ccccc1)c1ccccc1 | 27 | > 100 | 23.2 | 64.1 | 10.9 | 57.7 | 52.8 | > 100 | 7.72 | 39.6 | 22.5 | > 100 | 26.9 | 69.5 | 21.7 | 77.5 | 22.9 | > 100 | 36.5 | > 100
Cc1cc(S(=O)(=O)Nc2nc3cc(Cl)ccc3o2)c(SCc2ccccc2)cc1Cl | 21.2 | 46.9 | 19.3 | 48.5 | 21.5 | 49.7 | 22 | 49.5 | 21.9 | 40 | 21.2 | 44.1 | 23.8 | 59.9 | 19.2 | 41.3 | 26.1 | 62.2 | 22.4 | 48.5
O=c1c2c3c(sc2n2c(-c4ccc(Br)cc4)nnc2n1Cc1ccccc1)CCCC3 | 8.12 | 20.7 | 3.19 | 19.5 | 7.44 | 21.1 | 8.01 | 23.4 | 3.97 | 17.6 | 8.24 | 22.8 | 12.4 | 24.8 | 4.39 | 17.2 | 7.99 | 22.1 | 11.3 | 41.1
C[n+]1c(N)n(C(=O)OCc2ccccc2)c(=O)c2c1ncn2C(=O)OCc1ccccc1 | – | > 100 | – | > 100 | – | > 100 | – | > 100 | – | > 100 | – | > 100 | – | > 100 | – | > 100 | – | 65.9 | – | 62.9
CCOc1cc(C(C)(C)C)ccc1C1=N[C@@](C)(c2ccc(Cl)cc2)[C@@](C)(c2ccc(Cl)cc2)N1C(=O)N1CCN(CCS(C)(=O)=O)CC1 | 4.4 | 23.2 | 0.535 | 6.07 | 3.82 | 17.4 | 3.31 | 12.8 | 2.86 | 8.57 | 2.03 | 4.01 | 0.975 | 5.31 | 0.793 | 3 | 2.51 | 14.9 | 0.361 | 1.63
CC1=C(C(=O)Nc2ccccc2)C(c2ccc(C(C)C)cc2)C(C(=O)Nc2ccccc2)=C(C)N1 | – | > 100 | – | 30.2 | – | > 100 | – | 27.8 | – | 85.7 | – | 28.6 | – | > 100 | – | 35 | – | 99.3 | – | 46.6
COc1cc([C@@H]2c3cc4c(cc3C(OC3O[C@@H]5COC(C)O[C@H]5[C@H](O)[C@H]3O)C3COC(=O)[C@@H]32)OCO4)cc(OC)c1O (stereo partly drawn) | 0.836 | > 47.9 | 1.21 | 14.1 | 1.22 | 15.4 | 0.917 | 12.4 | 0.619 | 2.97 | 3.68 | 21.3 | 0.363 | > 39.1 | 0.868 | > 44.9 | 1.18 | > 18.9 | 3 | 31.6
CN(C)CCNc1nc2ccccc2c2c(=O)c3ccccc3sc12 | 2.83 | 11.3 | 1.86 | 4.05 | 2.1 | 8.82 | 2.13 | 8.85 | 1.94 | 4.29 | 1.44 | 3.08 | 1.81 | 3.96 | 1.73 | 3.68 | 1.74 | 6.94 | 1.08 | 3.37
CCCn1c(N)c(C(=O)CNc2ccc(I)cc2)c(=O)[nH]c1=O | 2.02 | > 59.5 | 45.6 | > 100 | 4.55 | > 100 | 29.2 | > 100 | 9.98 | > 100 | – | > 100 | 2.1 | > 100 | 1.15 | > 100 | 2.12 | > 40.1 | – | > 100
O=C(Nc1cc(-c2cccnc2)nc(NCCCN2CCOCC2)n1)c1cc(Br)cc(C(F)(F)F)c1 | 2.5 | 5.75 | 1.76 | 3.58 | 2.63 | 10.4 | 7.74 | 21.8 | 2.71 | 9.98 | 1.77 | 3.47 | 10.1 | 22.2 | 1.94 | 4.38 | 1.52 | 3.59 | 1.4 | 3.39
C#Cc1cc2c(N)c(C(=O)c3cc(OC)c(OC)c(OC)c3)[nH]c2cc1OC | 0.73 | > 100 | 0.434 | > 100 | 14.1 | > 100 | 11.2 | > 100 | 0.58 | > 100 | 0.38 | 2.27 | 0.729 | > 100 | 2.77 | > 100 | 0.208 | 1.18 | 0.722 | 56.1
CCCCCCNC(=O)Oc1ccc(/C(=C(\C)c2ccccc2)c2ccc(OCCN(CC)CC)cc2)cc1 | 4.89 | 11.1 | 3.59 | 10.1 | 5.54 | 13.1 | 4.93 | 10.9 | 6.51 | 13.4 | 1.17 | 2.49 | 5.11 | 11.4 | 2.05 | 7.4 | 3.54 | 10.5 | 1.51 | 6.09
Cc1ccc(S(=O)OC23CC4CC(CC(C4)C2)C3)cc1 (stereo not drawn) | – | > 100 | – | > 100 | – | > 100 | – | > 100 | – | > 100 | – | > 100 | – | > 100 | – | > 100 | – | > 100 | – | > 100
